Source: US9346741B2, “Polyamine transport selective therapeutic agents with enhanced stability” (University of Central Florida Research Foundation, Inc., priority 2012, dated 2016)
“Also recorded” adds a separate entry of the source. Where two headings read alike, the source gives them in different places.

What was measured:
[1] = system: MALME-3 cells; experiment: Cytotoxicity IC50 determination (MTS) in MALME-3 cells; type: cell-based, human; details: for IC50: 96 h at 37° C., 1 mM AG, 10% FBS
Method: (§1) Armed with this insight, compounds 5a-8b were evaluated in the MALME-3M (melanoma) cell line and its non-cancerous counterpart MALME-3 obtained originally from the same patient. These matched cell lines provided a method to assess PTS selectivity for the cancer line (MALME-3M) over the non-cancerous cell line (MALME-3).
(§2) CHO and CHO-MG cells were grown in RPMI 1640 medium supplemented with 10% fetal calf serum and 1% penicillin/streptomycin. Note: the media must contain L-proline (2 μg/mL) for proper growth of the CHO-MG cells. MALME-3M cells were grown in RPMI 1640 medium supplemented with 10% FBS and 1% penicillin/streptomycin. All cells were grown at 37° C. under a humidified 5% CO2 atmosphere Aminoguanidine (1 mM) was added to the growth medium to prevent oxidation of the drugs by the enzyme (bovine serum amine oxidase) present in calf serum. Cells in early to mid-log phase were used.
(§3) Cell growth was assayed in sterile 96-well microtiter plates (Costar 3599, Corning, N.Y., USA). CHO and CHO-MG* cells were plated at 10,000 cells/mL. MALME-3M and MALME-3 cells were plated at 5,000 cells/mL. Drug solutions (10 μL per well) of appropriate concentration were added after an overnight incubation for each CHO cell line (90 μL). 48 h MALME-3M experiments were conducted using 10% Nu-Serum IV, and 96 h MALME-3M and MALME-3 experiments were conducted using 10% FBS. After exposure to the drug for 48 h (CHO, CHO-MG*, and MALME-3M) or 96 h (MALME-3M and MALME-3), cell growth was determined by measuring formazan
(§4) formation from 3-(4,5-dimethylthiazol-2-yl)-5-(3-carboxymethoxyphenyl)-2-(4-sulphenyl)-2H-tetrazolium) inner salt (MTS) using a SynergyMx Biotek microplate reader for absorbance ([…]) measurements.^24

[2] = system: MALME-3M cells; experiment: Cytotoxicity IC50 determination (MTS) in MALME-3M cells; type: cell-based, human
Method: as §1, with “(MALME-3). […]” for “(MALME-3).”
as §2, §3, §4

[3] = system: CHO-MG* cells; experiment: Cytotoxicity IC50 determination (MTS) in polyamine-transport-deficient CHO-MG* cells; type: cell-based, Chinese hamster; details: 48 h at 37° C.
Text: (§5) CHO cells were chosen along with a mutant cell line (CHO-MG*) to comment on how the synthetic conjugates gain access to the cells.^2c-e, 6 As discussed earlier, the CHO-MG cell line is polyamine-transport deficient and represents a model for alternative modes of entry (other than PTS) including passive diffusion or use of another transporter. The CHO cell line on the other hand, represents cells with high polyamine transport activity.^7, 10c A comparison of toxicity in these two CHO cell lines allowed for a screen that would detect selective use of the polyamine transporter. This is seen where high utilization of the PTS would be very toxic to CHO cells, however, there would not be the same level of toxicity found in CHO-MG cells.^2c-e, 6 Ultimately, a CHO-MG/CHO IC50 can be determined where a high ratio would be achieved for highly PTS selective compounds.
(§6) CHO and CHO-MG cells were grown in RPMI 1640 medium supplemented with 10% fetal calf serum and 1% penicillin/streptomycin. Note: the media must contain L-proline (2 μg/mL) for proper growth of the CHO-MG cells. MALME-3M cells were grown in RPMI 1640 medium supplemented with 10% FBS and 1% penicillin/streptomycin. […] Cells in early to mid-log phase were used.
as §3, §4

[4] = system: CHO cells; experiment: in vitro; type: cell-based; details: for IC50: 48 h at 37° C.
Text: as §5, §6, §3, §4

[5] = system: polyamine transport system (PTS), CHO-MG* vs CHO cells; experiment: CHO-MG*/CHO IC50 ratio, a measure of PTS selectivity; type: cell-based, Chinese hamster; details: 48 h; for IC50 ratio w/AG (CHO-MG*/CHO): with 1 mM AG; for IC50 ratio w/o AG (CHO-MG*/CHO): without AG
Text: Compounds with high CHO-MG/CHO IC50 ratios are considered PTS selective.
as §5

[6] = system: MALME-3M (melanoma) vs MALME-3 (normal) cells; experiment: MALME-3/MALME-3M IC50 ratio, a measure of selectivity; type: cell-based, human; details: 96 h; 1 mM AG
Text: These matched cell lines provided a method to assess PTS selectivity for the cancer line (MALME-3M) over the non-cancerous cell line (MALME-3).

[7] = system: polyamine transport system (PTS) in L1210 cells; details: cited from earlier work
[8] = system: 60 human cancer cell lines; experiment: NCI 60 cell-line screen; type: cell-based; details: 48 h; for effect on breast cancer cell lines in the NCI 60 cell-line screen / effect on melanoma cell lines in the NCI 60 cell-line screen: 10 μM
Method: Once compounds 6a-b, 7a-b, and 8a-8b were evaluated in CHO and CHO-MG*, these compounds were sent to the National Cancer institute (NCI) to conduct its 60 cell-line screen to determine if these compounds could also be potent anti-cancer agents for human cancer cell lines. […] As shown in FIGS. 2A-2C, dose response curves were generated based upon the 60 cell-line screen at different molar concentrations of each PTS targeting agent 6b, 7b, and 8b.
To generate FIGS. 2A-2C, the respective drug was dosed at 10 μM into each human cancer cell line and cell viability was assessed after a 48 h incubation at 37° C. in an environment of 5% CO2, 95% air and 100% relative humidity. A more descriptive methodology can be found at the NCI website: http://dtp.nci.nih.gov/branches/btb/ivclsp.html. Cell lines which gave bar graphs which extend to the right of the central line were more sensitive to the drug than cell lines which extended to the left of the center line.

[9] = system: 60 human cancer cell lines; experiment: NCI 60 cell-line screen; type: cell-based; details: 5-dose assay
[10] = 1 mM AG 24 h prior to drug addition, read-out: CHO-MG* IC50 (μM) w/AG
[11] = without AG, read-out: CHO-MG* IC50 (μM) w/o AG
[12] = 1 mM AG 24 h prior to drug addition, read-out: CHO IC50 (μM) w/AG
[13] = without AG, read-out: CHO IC50 (μM) w/o AG
[14] = 48 h at 37° C., 1 mM AG, 10% Nu-Serum IV, read-out: MALME-3M IC50 (μM) w/ AG
[15] = 48 h at 37° C., without AG, 10% Nu-Serum IV, read-out: MALME-3M IC50 (μM) w/o AG
[16] = 96 h at 37° C., 1 mM AG, 10% FBS, read-out: MALME-3M IC50
[17] = Cricetulus griseus, CHO-MG, 1 mM AG 24 h prior to drug addition, read-out: CHO-MG* IC50 (μM) w/AG
[18] = Cricetulus griseus, CHO-MG, without AG, read-out: CHO-MG* IC50 (μM) w/o AG
[19] = Cricetulus griseus, CHO, 1 mM AG 24 h prior to drug addition, read-out: CHO IC50 (μM) w/AG
[20] = Cricetulus griseus, CHO, without AG, read-out: CHO IC50 (μM) w/o AG
[21] = Homo sapiens, Malme-3M, 48 h at 37° C., 1 mM AG, 10% Nu-Serum IV, read-out: MALME-3M IC50 (μM) w/ AG
[22] = Homo sapiens, Malme-3M, 48 h at 37° C., without AG, 10% Nu-Serum IV, read-out: MALME-3M IC50 (μM) w/o AG
[23] = Homo sapiens, Malme-3M, 96 h at 37° C., 1 mM AG, 10% FBS, read-out: MALME-3M IC50

N=C(N)NN [AG, aminoguanidine, reference compound]
toxicity of 1 mM AG in MALME-3 cells ([1]; 1 mM): ^b1 mM AG was determined to be non-toxic and incubated with MALME-3M and MALME-3 cells for 24 h prior to drug addition.
toxicity of 1 mM AG in MALME-3M cells ([2]; 1 mM): ^b1 mM AG was determined to be non-toxic and incubated with MALME-3M and MALME-3 cells for 24 h prior to drug addition; also recorded: ^b1 mM AG was determined to be non-toxic and incubated with MALME-3M cells for 24 h prior to drug addition

CNCCCCNCCCCNCc1c2ccccc2cc2ccccc12 [Compound 5b]
IC50 [3, 10]: 10.7 µM
IC50 [3, 11]: 11.3 µM
IC50 [4, 12]: 2.8 µM
IC50 [4, 13]: 2.1 µM
IC50 ratio w/AG (CHO-MG*/CHO) [5]: 3.8
IC50 ratio w/o AG (CHO-MG*/CHO) [5]: 5.4
IC50 [1]: 0.62 µM
IC50 [2, 14]: 0.6 µM
IC50 [2, 15]: 0.62 µM
IC50 [2, 16]: 0.45 µM
MALME-3/MALME-3M IC50 ratio [6]: 1.4

NCCCCNCCCCNCc1c2ccccc2c(CNCCCCNCCCCN)c2ccccc12 [Compound 6a]
IC50 [3, 10]: > 100 µM
IC50 [3, 11]: 8.4 µM
IC50 [4, 12]: 0.028 µM
IC50 [4, 13]: 4 µM
IC50 ratio w/AG (CHO-MG*/CHO) [5]: >3571
IC50 ratio w/o AG (CHO-MG*/CHO) [5]: 2.1
IC50 [1]: 0.69 µM
IC50 [2, 14]: 0.088 µM
IC50 [2, 15]: 0.29 µM
IC50 [2, 16]: 0.017 µM
MALME-3/MALME-3M IC50 ratio [6]: 41
Ki ([7]; read-out: Ki in L1210 cells): 0.39 µM

CNCCCCNCCCCNCc1c2ccccc2c(CNCCCCNCCCCNC)c2ccccc12 [Compound 6b, N1,N1′-(Anthracene-9,10-diylbis(methylene))bis(N4-(4-(methylamino)butyl)butane-1,4-diamine)]
IC50 [3, 17]: > 100 µM
IC50 [3, 18]: > 100 µM
IC50 [4, 19]: 0.083 µM
IC50 [4, 20]: 0.084 µM
IC50 ratio w/AG (CHO-MG*/CHO) [5]: >1204
IC50 ratio w/o AG (CHO-MG*/CHO) [5]: >1190
IC50 ([1]; Homo sapiens, MALME-3): 1 µM
IC50 [2, 21]: 0.13 µM
IC50 [2, 22]: 0.16 µM
IC50 [2, 23]: 0.062 µM
MALME-3/MALME-3M IC50 ratio [6]: 16
effect on breast cancer cell lines in the NCI 60 cell-line screen [8]: exhibited an anti-proliferation effect in breast cancer cell lines, particularly the T-47D cell line
effect on melanoma cell lines in the NCI 60 cell-line screen [8]: inhibited the proliferation of melanoma cell lines, particularly the MALME-3M cell line
NCI 60 cell-line screen, overall result ([8]; no AG): cell-targeting specificity, especially for the MALME-3M cell line
NCI 5-dose assay, MALME-3M cell line [9]: dose dependent response

NCCCCNCCCCNCc1ccc(CNCCCCNCCCCN)c2ccccc12 [Compound 7a]
IC50 [3, 10]: > 100 µM
IC50 [3, 11]: 52.1 µM
IC50 [4, 12]: 0.022 µM
IC50 [4, 13]: 5.5 µM
IC50 ratio w/AG (CHO-MG*/CHO) [5]: >4545
IC50 ratio w/o AG (CHO-MG*/CHO) [5]: 9.5
IC50 [1]: 1.27 µM
IC50 [2, 14]: 0.043 µM
IC50 [2, 15]: 0.43 µM
IC50 [2, 16]: 0.018 µM
MALME-3/MALME-3M IC50 ratio [6]: 71
Ki ([7]; read-out: Ki in L1210 cells): 0.17 µM

CNCCCCNCCCCNCc1ccc(CNCCCCNCCCCNC)c2ccccc12 [Compound 7b, N1,N1′-(Naphthalene-1,4-diylbis(methylene))bis(N4-(4-(methylamino)butyl)butane-1,4-diamine)]
IC50 [3, 17]: > 100 µM
IC50 [3, 18]: > 100 µM
IC50 [4, 19]: 0.044 µM
IC50 [4, 20]: 0.039 µM
IC50 ratio w/AG (CHO-MG*/CHO) [5]: >2272
IC50 ratio w/o AG (CHO-MG*/CHO) [5]: >2564
IC50 ([1]; Homo sapiens, MALME-3): 0.82 µM
IC50 [2, 21]: 0.1 µM
IC50 [2, 22]: 0.17 µM
IC50 [2, 23]: 0.014 µM
MALME-3/MALME-3M IC50 ratio [6]: 59
effect on breast cancer cell lines in the NCI 60 cell-line screen [8]: exhibited an anti-proliferation effect in breast cancer cell lines, particularly the T-47D cell line
effect on melanoma cell lines in the NCI 60 cell-line screen [8]: inhibited the proliferation of melanoma cell lines, particularly the MALME-3M cell line
NCI 5-dose assay, MALME-3M cell line [9]: dose dependent response

NCCCCNCCCCNCc1cc(CNCCCCNCCCCN)cc(CNCCCCNCCCCN)c1 [Compound 32, reference compound]
IC50 ([3]; Cricetulus griseus, CHO-MG, Table 4, 1 mM AG 24 h prior to drug addition, read-out: CHO-MG* IC50): > 100 µM
fold less toxic than 34a in the CHO cell line ([4]; CHO, versus 34a): > 3500 fold
IC50 ([4]; Cricetulus griseus, CHO, Table 4, 1 mM AG 24 h prior to drug addition, read-out: CHO IC50): > 100 µM
MTD (μM) in CHO (maximum tolerated dose) ([4]; hamster): 80 µM
IC50 ratio w/AG (CHO-MG*/CHO) [5]: 1
Ki ([7]; unit inferred, read-out: Ki values in L1210 cells): 0.52 ± 0.11 µM

NCCCCNCCCN [Spermidine, spermidine, reference compound]
non-toxic concentration in MALME-3 ([1]; spermidine alone): up to 100 μM
non-toxic concentration in MALME-3M ([2]; spermidine alone): up to 100 μM
Ki ([7]; read-out: Ki in L1210 cells): 2.46 µM
